Test results published in patent US9198420B2, “Rodenticidal norbormide analogues” (priority 2012, dated 2015).
Like-named read-outs stand apart in the source and are kept apart here.

Assays:
[1] = Simulated gastric fluid (SGF) hydrolytic stability assay; assay type: physicochemical; conditions: simulated gastric fluid without pepsin, pH 1.2, 37° C., 1 h, n = 3; for % NRB released, Hydrolytic Stability (simulated gastric fluid): footnote c: compounds not exhibiting vasoconstriction
Procedure: All in vivo candidates were subjected to a 1 h hydrolytic stability appraisal in the presence of SGF, without pepsin (United States Pharmacopoeia 24) [200 μL total volume, sodium chloride solution (0.03 M) acidified to pH 1.2 with concentrated hydrochloric acid, at a final compound concentration of 200 μM, 2.5% DMSO overall, 37° C., n=3], to investigate any potential chemical instabilities that may occur in the acidic environment of the stomach prior to uptake. Analysis was by RP-LCMS at an injection volume of 5 μL.

[2] = tested on: rat caudal artery; assay: Rat caudal artery ring contractile force (vasoconstrictory activity); design: species or system rat (male Wistar)
Procedure: Male Wistar rats (150-250 g) were obtained from Charles River Italia (Milano, Italy) and killed by decapitation. Ventral caudal artery was isolated, placed in Tyrode solution at room temperature and cleaned of extraneous fatty and connective tissue under a dissection microscope. All vessels were cut into rings 2 mm long, mounted on a custom-built plexiglass support by means of two intraluminal tungsten wires and placed in 20 mL double-jacketed organ baths filled with Tyrode solution of the following composition (mM): NaCl 125, KCl 5, CaCl2 2.7, MgSO4 1, KH2PO4 1.2, NaHCO3 25 and glucose 11, maintained at 37° C., pH 7.35, bubbled with 95% O2 and […]. The endothelium was removed by gently rubbing the lumen of the rings with a very thin rough-surfaced tungsten wire (caudal artery). The mechanical activity of the rings was detected by means of an isometric force transducer (Ugo Basile, Comerio, Italy) coupled to a pen recorder (Ugo Basile, Comerio, Italy). Rings were passively stretched to impose a resting tension (2 g) and were allowed to equilibrate for 60 min. After equilibration, each ring was repeatedly simulated with both KCl (90 mM) and phenylephrine (10 μM) until reproducible responses were obtained. To verify the absence of the endothelium, rings contracted with 1 μM phenylephrine were exposed to […] carbamylcholine. […] Each compound was tested for the vasoconstrictor activity at a concentration of 50 μM, which has been previously reported to be the one evoking the maximal response to norbormide. The contractile responses to the compounds were expressed as percent of the 90 mM KCl response.

[3] = Rat serum assay (release of NRB or NRB analogue); assay type: in vitro ADME; conditions: 80% rat serum, 37° C., 3 h, n = 3
Procedure: The hydrolytic stability of compounds of the invention in rat blood was evaluated using in vitro rat serum obtained from Sigma-Aldrich and stored at −78° C. Similar assay conditions to those reported by Li Di and co-workers (Int. J. Pharm. 2005, 297, 110-119) were followed [200 μL total volume, 80% rat serum (diluting with phosphate buffer (0.1 M, pH 7.4)), at a final compound concentration of 200 μM, 2.5% DMSO overall, 37° C., 3 h, n=3] using an Eppendorf Thermomixer Compact. Reactions were quenched by transferring 150 μL of the incubation mixture to 450 μL of ice-cold acetonitrile, affording a final compound/NRB or NRB analogue concentration of 50 μM. Samples were centrifuged at 14,500×g for 15 min using an Eppendorf Mini Spin Plus centrifuge, at ambient temperature. 400 μL of the supernatant was removed and transferred to clean tubes. Analysis was by RP-LCMS at an injection volume of 20 μL. Each compound and corresponding NRB or NRB analogue were subjected to external calibration curves at 50 μM, 100 μM and 200 μM to allow conversion of absorbance unit area into nmol, from which the percentage of NRB or NRB analogue released from each compound was calculated.

[4] = tested on: Sprague Dawley rats; assay: In vivo lethality, oral gavage; design: species or system rat (Sprague Dawley); conditions: rat, n = 2
Procedure: Sprague Dawley rats (150-200 g) were used to appraise the rodenticidal activity of the compounds put forward for in vivo evaluation. Briefly, prior to administration the compounds were dissolved in 0.2 M hydrochloric acid (5% DMSO overall), to the desired dose, and without delay either injected intravenously, via the tail, or orally gavaged. All treated animals were housed in a quiet room and monitored every minute (i.v) or every 15 min (oral) to verify early signs of toxicity.

[5] = Table 5, compounds of formula (III)
[6] = Table 1, read-out: Vasoconstriction: maximum contractile effect as a % of 90 mM KCl contraction

| SMILES | Vasoconstriction: maximum contractile effect as a % of 90 mM KCl contraction ([2]; Table 4, pre-cleavage, n = 3) [%] | % NRB released, Rat Serum [3] [%] | In vivo lethality (oral) ([4]; 40 mg/Kg) | % NRB released, Hydrolytic Stability [1] [%] | Vasoconstriction: maximum contractile effect as a % of 90 mM KCl contraction [2, 5] [%] | Vasoconstriction: maximum contractile effect as a % of 90 mM KCl contraction ([2]; n = 3, pre-cleavage, Table 6) [%] | further results |
| --- | --- | --- | --- | --- | --- | --- | --- |
| CC(CN1C(=O)C2C3C=C(C(O)(c4ccccc4)c4ccccn4)C(C3=C(c3ccccc3)c3ccccn3)C2C1=O)OC(=O)C=Cc1ccccc1 (stereo not drawn) [Compound 135, N-2′-Cinnamoyloxypropyl-5-(α-hydroxy-α-2-pyridylbenzyl)-7-(α-2-pyridylbenzylidene)-5-norbornene-2,3-dicarboximide] | 0 | 33.8 ± 6.1 | – | – | – | – | % NRB released, Hydrolytic Stability (simulated gastric fluid) [1]: 0^c %; Vasoconstriction: maximum contractile effect as a % of 90 mM KCl contraction ([2]; Table 1, compound at 50 μM): 0% |
| COC(=O)C(N)CC(=O)OCCN1C(=O)C2C3C=C(C(O)(c4ccccc4)c4ccccn4)C(C3=C(c3ccccc3)c3ccccn3)C2C1=O.O=C(O)C(F)(F)F (stereo not drawn) [Compound 343, 5-(α-Hydroxy-α-2-pyridylbenzyl)-N-[2′-(α-methylaspartoyloxy)ethyl]-7-(α-2-pyridylbenzylidene)-5-norbornene-2,3-dicarboximide trifluoroacetate] | 149 | – | yes^h,i | – | – | – | Vasoconstriction: maximum contractile effect as a % of 90 mM KCl contraction ([2]; Table 1, compound at 50 μM): 140%; In vivo lethality (oral) ([4]; 20 mg/Kg): yes^h,i |
| O=C(OCN1C(=O)C2C3C=C(C(O)(c4ccccc4)c4ccccn4)C(C3=C(c3ccccc3)c3ccccn3)C2C1=O)c1ccc(C(=O)OCN2C(=O)C3C4C=C(C(O)(c5ccccc5)c5ccccn5)C(C4=C(c4ccccc4)c4ccccn4)C3C2=O)cc1 (stereo not drawn) [Compound 26, 5-(α-Hydroxy-α-2-pyridylbenzyl)-7-(α-2-pyridylbenzylidene)-N-terephthaloyloxymethyl-5-norbornene-2,3-dicarboximide dimer] | – | <5 | – | 0 | 0 | 0 | – |
| O=C(CCC(=O)OCN1C(=O)C2C3C=C(C(O)(c4ccccc4)c4ccccn4)C(C3=C(c3ccccc3)c3ccccn3)C2C1=O)OCN1C(=O)C2C3C=C(C(O)(c4ccccc4)c4ccccn4)C(C3=C(c3ccccc3)c3ccccn3)C2C1=O (stereo not drawn) [Compound 21, 5-(α-Hydroxy-α-2-pyridylbenzyl)-7-(α-2-pyridylbenzylidene)-N-succinoyloxymethyl-5-norbornene-2,3-dicarboximide dimer] | – | 29.6 ± 5.4 | – | 0 | 0 | 0 | – |
| O=C(CCCCCCCCCCC(=O)OCCN1C(=O)C2C3C=C(C(O)(c4ccccc4)c4ccccn4)C(C3=C(c3ccccc3)c3ccccn3)C2C1=O)OCCN1C(=O)C2C3C=C(C(O)(c4ccccc4)c4ccccn4)C(C3=C(c3ccccc3)c3ccccn3)C2C1=O (stereo not drawn) [Compound 142, N-2′-Dodecanedioyloxyethyl-5-(α-hydroxy-α-2-pyridylbenzyl)-7-(α-2-pyridylbenzylidene)-5-norbornene-2,3-dicarboximide dimer] | – | <5 | – | 0 | 0 | 0 | – |
| O=C(OCCN1C(=O)C2C3C=C(C(O)(c4ccccc4)c4ccccn4)C(C3=C(c3ccccc3)c3ccccn3)C2C1=O)c1ccc(C(=O)OCCN2C(=O)C3C4C=C(C(O)(c5ccccc5)c5ccccn5)C(C4=C(c4ccccc4)c4ccccn4)C3C2=O)cc1 (stereo not drawn) [Compound 143, 5-(α-Hydroxy-α-2-pyridylbenzyl)-7-(α-2-pyridylbenzylidene)-N-2′-terephthaloyloxyethyl-5-norbornene-2,3-dicarboximide dimer] | – | 27.5 ± 1.4 | – | 0 | 0 | 0 | – |
| COc1ccc(C=CC(=O)NCCN2C(=O)C3C4C=C(C(O)(c5ccccc5)c5ccccn5)C(C4=C(c4ccccc4)c4ccccn4)C3C2=O)cc1 (stereo not drawn) [Compound 361, 5-(α-Hydroxy-α-2-pyridylbenzyl)-N-[2′-(4″-methoxycinnamamido)ethyl]-7-(α-2-pyridylbenzylidene)-5-norbornene-2,3-dicarboximide] | 21 | – | yes^h,i | – | – | – | Emax ([2]; Table 2, read-out: Vasoconstriction: maximum contractile effect as a % of 90 mM KCl contraction): 21%; In vivo lethality (oral) ([4]; 20 mg/Kg): yes^h,i |
| CCCCCCCCCCCC(=O)OCCN1C(=O)C2C3C=C(C(O)(c4ccccc4)c4ccccn4)C(C3=C(c3ccccc3)c3ccccn3)C2C1=O (stereo not drawn) [Compound 112, N-2′-Dodecanoyloxyethyl-5-(α-hydroxy-α-2-pyridylbenzyl)-7-(α-2-pyridylbenzylidene)-5-norbornene-2,3-dicarboximide] | 0 | 19.3 ± 1.3 | – | – | – | – | % NRB released, Hydrolytic Stability (simulated gastric fluid) [1]: 0^c %; Vasoconstriction: maximum contractile effect as a % of 90 mM KCl contraction ([2]; Table 1, compound at 50 μM): 0% |
| O=C(OCN1C(=O)C2C3C=C(C(O)(c4ccccc4)c4ccccn4)C(C3=C(c3ccccc3)c3ccccn3)C2C1=O)C(c1ccccc1)c1ccccc1 (stereo not drawn) [Compound 17, N-Diphenylacetyloxymethyl-5-(α-hydroxy-α-2-pyridylbenzyl)-7-(α-2-pyridylbenzylidene)-5-norbornene-2,3-dicarboximide] | 0 | – | no^h | – | – | – | Emax [2, 6]: 0% |
| CCCCCCCC(=O)NCCN1C(=O)C2C3C=C(C(O)(c4ccccc4)c4ccccn4)C(C3=C(c3ccccc3)c3ccccn3)C2C1=O (stereo not drawn) [Compound 364, 5-(α-Hydroxy-α-2-pyridylbenzyl)-N-2′-octanamidoethyl-7-(α-2-pyridylbenzylidene)-5-norbornene-2,3-dicarboximide] | 21 | – | yes^h,i | – | – | – | Vasoconstriction: maximum contractile effect as a % of 90 mM KCl contraction ([2]; Table 2, compound at 50 μM): 21%; In vivo lethality (oral) ([4]; 20 mg/Kg): yes^h,i |
| CS(=O)(=O)c1ccc(C=CC(=O)OCCN2C(=O)C3C4C=C(C(O)(c5ccccc5)c5ccccn5)C(C4=C(c4ccccc4)c4ccccn4)C3C2=O)cc1 (stereo not drawn) [Compound 329, 5-(α-Hydroxy-α-2-pyridylbenzyl)-N-[2′-(4″-methylsulfonylcinnamoyloxy)ethyl]-7-(α-2-pyridylbenzylidene)-5-norbornene-2,3-dicarboximide] | 88 | – | yes^h | – | – | – | Emax [2, 6]: 88% |
| CCCCCCCCOC(=O)CN1C(=O)C2C3C=C(C(O)(c4ccccc4)c4ccccn4)C(C3=C(c3ccccc3)c3ccccn3)C2C1=O (stereo not drawn) [Compound 369, 5-(α-Hydroxy-α-2-pyridylbenzyl)-N-octyloxycarbonylmethyl-7-(α-2-pyridylbenzylidene)-5-norbornene-2,3-dicarboximide] | 0 | – | no^h | – | – | – | Emax ([2]; Table 3, read-out: Vasoconstriction: maximum contractile effect as a % of 90 mM KCl contraction): 0% |
